Where two headings read alike, the source gives them in different places.
What was measured:
[1] = Metabolic stability in human liver microsomes; assay type: in vitro ADME; details: pH 7.4, human liver microsomes 0.5 mg/mL, compound 1 μM, NADPH, 37° C.; for half-life at 1 μM: read-out: t1/2 in human liver microsomes
Description: (§1) Experiments in microsomes: Human liver microsomes: 0.5 mg/mL, Xenotech; Rat liver microsomes: 0.5 mg/mL, Xenotech; Coenzyme (NADPH/NADH): 1 mM, Sigma Life Science; Magnesium chloride: 5 mM, 100 mM phosphate buffer (pH 7.4).
(§2) Preparation of stock solution: Powder of the example compound 1-7 was accurately weighed and dissolved in DMSO to 5 mM. Preparation of phosphate buffer (100 mM, pH7.4): A pre-formulated 0.5M potassium dihydrogen phosphate (150 mL) was mixed with 0.5M dibasic potassium phosphate (700 mL). The pH of the mixture was adjusted to 7.4 with 0.5M dibasic potassium phosphate solution. The mixture was diluted 5-fold with ultrapure water before use, and magnesium chloride was added to obtain a phosphate buffer (100 mM) containing 100 mM potassium phosphate, 3.3 mM magnesium chloride, pH 7.4. A NADPH regeneration system solution (containing 6.5 mM NADP, 16.5 mM G-6-P, 3 U/mL G-6-PD, 3.3 mM magnesium chloride) was prepared and placed on wet ice prior to use. Preparation of stop solution: acetonitrile solution containing 50 ng/mL propranolol hydrochloride and 200 ng/mL tolbutamide (internal standard). 25057.5 μL of phosphate buffer (pH 7.4) was taken into a 50 mL centrifuge tube, to which 812.5 μL human liver microsomes were added, and mixed to obtain a liver microsome dilution solution with a protein concentration of 0.625 mg/mL. 25057.5 μL of phosphate buffer (pH 7.4) was taken into a 50 mL centrifuge tube, to which 812.5 μL SD rat liver microsomes were added, and mixed to obtain a liver microsome dilution solution with a protein concentration of 0.625 mg/mL.
(§3) Incubation of the samples: The stock solution of the respective compound was respectively diluted to 0.25 mM with an aqueous solution containing 70% acetonitrile, and used as a working solution, ready for use. 398 μL of the dilution solution of human liver microsomes or rat liver microsome were added to a 96-well incubation plate (N=2), respectively, and 2 μL of 0.25 mM working solution was added and mixed.
(§4) Metabolic stability assay: 300 μL of pre-chilled stop solution was added to each well of a 96-well deep well plate and placed on ice as a stop plate. The 96 well incubation plate and NADPH regeneration system were placed in a 37° C. water bath box, shaken at 100 rpm and pre-incubated for 5 min. 80 μL of incubation solution was taken out from each well of the incubation plate and added to the stop plate, mixed, and replenished with 20 μL of NADPH regeneration system solution as a 0-min sample. 80 μL of NADPH regeneration system solution was added to each well of the incubation plate to start the reaction and start counting. […] Separately, 100 μL of the reaction solution was taken at 10, 30, and 90 min reaction, respectively, added to a stop plate, and vortexed for 3 minutes to terminate the reaction. The stop plate was centrifuged at 5000×g at 4° C. for 4 min. 100 μL of the supernatant was added to a 96-well plate to which 100 μL of distilled water was previously added, mixed, and analyzed by LC-MS/MS.
(§5) Data analysis: The peak areas of the corresponding compound and internal standard were detected by LC-MS/MS system, and the ratio of the peak area of the compound to the internal standard was calculated. The slope was measured by plotting the natural logarithm of the percent of compound remaining versus time, and t1/2 and CLint were calculated according to the formula, where V/M is equal to 1/protein concentration.

[2] = Pharmacokinetic evaluation in rats; assay type: in vivo, Sprague-Dawley rats; details: rat; for AUC(0-inf) / AUC(0-t) / Tmax / MRT inf / F / half-life / Cmax: male, Sprague-Dawley; for AUC(0-inf) / AUC(0-t) / Tmax / MRT inf / Cmax: plasma; for MRT inf: read-out: MRTINF_pred; for F / half-life: in vivo
Description: 6 male Sprague-Dawley rats (7-8 weeks old, and weighing approximately 210 g) were divided into 2 groups with 3 rats in each group. The rats were intravenously or orally administered a single dose of compound (3 mg/kg intravenously, 10 mg/kg orally) to compare pharmacokinetic differences.
The rats were raised on standard food and water. Fasting was started 16 hours before the test. The drug was dissolved with PEG400 and dimethyl sulfoxide. The blood samples were collected from eyelids at the time points of 0.083 hours, 0.25 hours, 0.5 hours, 1 hour, 2 hours, 4 hours, 6 hours, 8 hours, 12 hours, and 24 hours after administration.
Rats were briefly anesthetized after inhalation of diethyl ether and 300 μL of blood sample was collected from the eyelids into test tubes. There was 30 μL of 1% heparin salt solution in the test tube. Tubes were dried at 60° C. overnight before use. After the blood sample was collected at a later time point, the rats were sacrificed after ether anesthesia.
Immediately after the collection of the blood sample, the test tube was gently inverted at least 5 times to ensure sufficient mixing and then placed on ice. The blood sample was centrifuged at 5000 rpm at 4° C. for 5 minutes to separate the plasma from the red blood cells. 100 μL of plasma was aspirated into a clean plastic centrifuge tube with a pipette, marking with the name of the compound and time point. Plasma was stored at −80° C. prior to analysis. The concentration of the compound of the present disclosure in plasma was determined by LC-MS/MS. The pharmacokinetic parameters were calculated based on the blood concentration of each animal at different time points.

[3] = Metabolic stability in rat liver microsomes; assay type: in vitro ADME, SD rat; details: rat liver microsomes 0.5 mg/mL, compound 1 μM, NADPH, 37° C.; for microsomal CLint at 1 μM / half-life at 1 μM: Sprague-Dawley, pH 7.4; for half-life at 1 μM: read-out: t1/2 in rat liver microsomes
Description: as §1, §2, §3, §4, §5

| Molecule | microsomal CLint at 1 μM [1] [µL/min/mg] | half-life at 1 μM [1] [h] | AUC(0-inf) ([2]; IV, 3 mg/kg single dose) [µg·h/mL] | AUC(0-t) ([2]; IV, 3 mg/kg single dose) [µg·h/mL] | Tmax ([2]; IV, 3 mg/kg single dose) [h] | MRT inf ([2]; IV, 3 mg/kg single dose) [h] | AUC(0-inf) ([2]; PO, 10 mg/kg single dose) [µg·h/mL] | AUC(0-t) ([2]; PO, 10 mg/kg single dose) [µg·h/mL] | Tmax ([2]; PO, 10 mg/kg single dose) [h] | MRT inf ([2]; PO, 10 mg/kg single dose) [h] | F [2] [%] | half-life ([2]; iv, 3 mg/kg) [h] | half-life ([2]; po, 10 mg/kg) [h] | Cmax ([2]; IV, 3 mg/kg single dose) [ng/mL] | Cmax ([2]; PO, 10 mg/kg single dose) [ng/mL] | Vz_pred ([2]; IV, 3 mg/kg single dose) [L/kg] | Vz_pred ([2]; PO, 10 mg/kg single dose) [L/kg] | microsomal CLint at 1 μM [3] [µL/min/mg] | half-life at 1 μM [3] [h] | also measured |
| --- | --- | --- | --- | --- | --- | --- | --- | --- | --- | --- | --- | --- | --- | --- | --- | --- | --- | --- | --- | --- |
| [2H]c1cccc(Oc2ccc3c(O)c(C(=O)NC([2H])([2H])C(=O)O)nc(C)c3c2)c1 [Compound 49, N-[(4-hydroxy-1-methyl-7-(3-d-phenoxy)-3-isoquinolinyl)carbonyl]-2,2-d2-glycine] | < 8.6 | > 2.42 | 49.5 | 49.4 | 0.08 | 2.85 | 222 | 218 | 2.67 | 5.83 | 132.44 | 2.89 | 3.33 | 19500 | 25400 | 0.25 | 0.24 | < 8.6 | > 2.42 | – |
| [2H]c1c([2H])c([2H])c(Oc2ccc3c(O)c(C(=O)NC([2H])([2H])C(=O)O)nc(C)c3c2)c([2H])c1[2H] [Compound 48, N-[(4-hydroxy-1-methyl-7-(d5-phenoxy))-3-(3-isoquinolinyl)carbonyl]-2,2-d2-glycine] | < 8.6 | > 2.42 | – | – | – | – | – | – | – | – | – | – | – | – | – | – | – | < 8.6 | > 2.42 | – |
| [2H]c1cc([2H])c(Oc2ccc3c(O)c(C(=O)NC([2H])([2H])C(=O)O)nc(C)c3c2)c([2H])c1 [Compound 47] | < 8.6 | > 2.42 | – | – | – | – | – | – | – | – | – | – | – | – | – | – | – | < 8.6 | > 2.42 | – |
| [2H]C([2H])(NC(=O)c1nc(C)c2cc(Oc3ccccc3)ccc2c1O)C(=O)O [Compound 11, N-[(4-hydroxy-1-methyl-7-phenoxy-3-isoquinolinyl)carbonyl]-2,2-d2-glycine] | – | – | 51.6 | 51.6 | 0.08 | 2.84 | 261 | 260 | 4 | 5.87 | 151.17 | 2.43 | 2.77 | 19000 | 24600 | 0.21 | 0.16 | < 8.6 | > 2.42 | – |
| Cc1nc(C(=O)NCC(=O)O)c(O)c2ccc(Oc3ccccc3)cc12 [FG-4592, reference compound] | < 8.6 | > 2.42 | 63.8 | 63.8 | 0.08 | 2.82 | 196 | 196 | 2.83 | 5.03 | 92.21 | 2.08 | 2.78 | 21100 | 22100 | 0.15 | 0.20 | < 8.6 | > 2.42 | – |
| [2H]Cc1nc(C(=O)NCC(=O)O)c(O)c2ccc(Oc3ccccc3)cc12 [Compound 13, N-[(4-hydroxy-1-d-methyl-7-phenoxy-3-isoquinolinyl)carbonyl] glycine] | < 8.6 | > 2.42 | – | – | – | – | – | – | – | – | – | – | – | – | – | – | – | < 8.6 | > 2.42 | – |
| [2H]c1cc([2H])c(Oc2ccc3c(O)c(C(=O)NCC(=O)O)nc(C)c3c2)c([2H])c1 [Compound 23] | < 8.6 | > 2.42 | – | – | – | – | – | – | – | – | – | – | – | – | – | – | – | < 8.6 | > 2.42 | – |
| [2H]C([2H])(NC(=O)c1nc(C([2H])([2H])[2H])c2cc(Oc3ccccc3)ccc2c1O)C(=O)O [Compound 36, N-[(4-hydroxy-1-(d3-methyl)-7-phenoxy-3-isoquinolinyl)carbonyl]-2,2-d2-glycine] | < 8.6 | > 2.42 | – | – | – | – | – | – | – | – | – | – | – | – | – | – | – | < 8.6 | > 2.42 | – |
| [2H]c1c([2H])c([2H])c(Oc2ccc3c(O)c(C(=O)NCC(=O)O)nc(C)c3c2)c([2H])c1[2H] [Compound 32, N-[(4-hydroxy-1-methyl-7-(d5-phenoxy)-3-isoquinolinyl)carbonyl] glycine] | < 8.6 | > 2.42 | 55.9 | 55.9 | 0.75 | 3.14 | 185 | 185 | 0.83 | 5.33 | 99.05 | 2.49 | 2.43 | 12200 | 17700 | 0.18 | 0.21 | < 8.6 | > 2.42 | – |
| [2H]c1cccc(Oc2ccc3c(O)c(C(=O)NCC(=O)O)nc(C)c3c2)c1 [Compound 46, N-[(4-hydroxy-1-methyl-7-(3-d-phenoxy)-3-isoquinolinyl)carbonyl]glycine] | < 8.6 | > 2.42 | – | – | – | – | – | – | – | – | – | – | – | – | – | – | – | < 8.6 | > 2.42 | – |
| N-[(4-hydroxy-1-(d-methyl)-7-phenoxy-3-isoquinolinyl) carbonyl]-2,2-d2-glycine [Compound 34] | – | – | – | – | – | – | – | – | – | – | – | – | – | – | – | – | – | – | – | CLint in rat liver microsomes [3]: <8.6 µL/min/mg; t1/2 in rat liver microsomes [3]: >2.42 h |
